Two molecules from publication PMC4256678 (Nature neuroscience, 2014) can be followed below.

SMILES strings stand for the structures.

Assay [1] concerns the target T1, HDAC2 (Homo sapiens, UniProt Q92769). Description: fluorometric HDAC activity assay, […]. In kind it is biochemical.
A further assay concerns the target HDAC1 (Homo sapiens, UniProt Q13547). Description: […]FTY720-P radioligand binding and displacement on Ni-NTA immobilized HDAC1.
Assay [2] addresses T2, HDAC3 (Homo sapiens, UniProt O15379). Nature of the assay: fluorometric HDAC activity assay, […]. Format: biochemical.
For the next assay, the target named is T3, HDAC8 (Homo sapiens, UniProt Q9BY41).
T3 sequence (Q9BY41 1-377): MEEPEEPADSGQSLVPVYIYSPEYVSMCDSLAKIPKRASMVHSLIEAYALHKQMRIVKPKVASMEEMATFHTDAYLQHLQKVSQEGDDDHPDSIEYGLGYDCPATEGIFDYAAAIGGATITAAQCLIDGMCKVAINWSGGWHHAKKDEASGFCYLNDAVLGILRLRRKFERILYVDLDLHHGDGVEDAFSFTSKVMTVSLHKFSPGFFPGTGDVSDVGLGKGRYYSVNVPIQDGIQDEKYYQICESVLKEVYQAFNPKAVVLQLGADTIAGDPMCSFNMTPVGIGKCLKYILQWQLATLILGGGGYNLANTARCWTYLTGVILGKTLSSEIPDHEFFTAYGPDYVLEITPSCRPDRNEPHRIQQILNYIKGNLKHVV
Description: fluorometric HDAC activity assay, […]. In kind it is biochemical.

The target in assay [3] is T2, HDAC3. Description: fluorometric HDAC activity assay, […]. Format: biochemical. This is another data set of the same source.
Assay [4] concerns the target T1, HDAC2. Description: fluorometric HDAC activity assay, […]. Format: biochemical. The source holds these as a separate data set.

T1 sequence (Q92769 whole entry): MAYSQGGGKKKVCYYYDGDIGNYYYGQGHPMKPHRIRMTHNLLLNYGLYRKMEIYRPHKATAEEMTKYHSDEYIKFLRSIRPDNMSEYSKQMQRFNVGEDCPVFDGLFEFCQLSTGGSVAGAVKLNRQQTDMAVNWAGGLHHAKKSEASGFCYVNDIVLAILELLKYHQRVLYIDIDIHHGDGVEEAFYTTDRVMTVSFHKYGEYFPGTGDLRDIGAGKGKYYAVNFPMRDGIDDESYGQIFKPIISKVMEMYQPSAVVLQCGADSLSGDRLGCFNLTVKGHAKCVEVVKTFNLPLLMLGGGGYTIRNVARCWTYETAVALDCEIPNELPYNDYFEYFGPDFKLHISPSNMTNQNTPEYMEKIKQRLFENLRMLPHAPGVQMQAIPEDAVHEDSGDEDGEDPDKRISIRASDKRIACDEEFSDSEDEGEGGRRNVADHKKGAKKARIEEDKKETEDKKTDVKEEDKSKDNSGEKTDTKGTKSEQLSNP
T2 sequence (O15379 whole entry): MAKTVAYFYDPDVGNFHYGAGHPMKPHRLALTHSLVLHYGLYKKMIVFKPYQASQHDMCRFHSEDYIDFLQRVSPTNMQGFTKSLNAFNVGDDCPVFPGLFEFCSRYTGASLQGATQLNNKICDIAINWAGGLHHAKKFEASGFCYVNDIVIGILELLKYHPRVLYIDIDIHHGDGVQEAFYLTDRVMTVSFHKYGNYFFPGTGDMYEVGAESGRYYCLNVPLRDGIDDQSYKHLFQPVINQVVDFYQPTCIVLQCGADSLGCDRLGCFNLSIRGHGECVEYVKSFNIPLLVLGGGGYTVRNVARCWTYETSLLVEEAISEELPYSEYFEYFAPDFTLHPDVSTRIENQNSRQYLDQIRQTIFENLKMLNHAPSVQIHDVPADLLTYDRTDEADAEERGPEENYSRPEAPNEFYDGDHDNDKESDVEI
HDAC1, sequence (Q13547 whole entry): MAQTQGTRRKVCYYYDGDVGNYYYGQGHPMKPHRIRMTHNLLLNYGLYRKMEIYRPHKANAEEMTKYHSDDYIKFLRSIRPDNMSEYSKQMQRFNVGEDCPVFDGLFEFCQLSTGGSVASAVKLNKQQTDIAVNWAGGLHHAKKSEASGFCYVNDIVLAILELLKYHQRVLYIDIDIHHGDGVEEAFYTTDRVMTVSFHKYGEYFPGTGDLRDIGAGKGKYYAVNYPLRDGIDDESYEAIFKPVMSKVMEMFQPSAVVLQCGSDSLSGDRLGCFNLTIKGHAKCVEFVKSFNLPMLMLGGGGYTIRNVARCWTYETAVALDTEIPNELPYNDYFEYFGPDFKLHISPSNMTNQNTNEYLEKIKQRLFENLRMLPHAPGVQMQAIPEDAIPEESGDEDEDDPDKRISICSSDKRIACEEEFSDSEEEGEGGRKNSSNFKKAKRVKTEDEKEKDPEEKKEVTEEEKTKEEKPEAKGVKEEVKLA

`CCCCCCCCc1ccc(CC[C@](N)(CO)COP(=O)(O)O)cc1` [FTY720-P]: the “fluorometric HDAC activity assay, 0.5 or 5 uM” value at HDAC2 [1] is “FTY720-P inhibited the activities of highly purified recombinant class I HDACs (HDAC1, HDAC2, HDAC3 and HDAC8)”; on HDAC3 [2], “FTY720-P inhibited the activities of highly purified recombinant class I HDACs (HDAC1, HDAC2, HDAC3 and HDAC8)”; on HDAC8, “FTY720-P inhibited the activities of highly purified recombinant class I HDACs (HDAC1, HDAC2, HDAC3 and HDAC8)”. The Kd on HDAC1 amounted to 6.2 nM.

`CCCCCCCCCCCCC/C=C/[C@@H](O)[C@@H](N)COP(=O)(O)O` [S1P]: the “fluorometric HDAC activity assay, 5 uM” value at HDAC3 [3] is “Even though S1P inhibited HDAC1–HDAC3, it did not inhibit HDAC8 activity”; on HDAC2 [4], “Even though S1P inhibited HDAC1–HDAC3, it did not inhibit HDAC8 activity”.

By Kd is commonly meant the free concentration of one partner at which half of the binding sites on the other are occupied at equilibrium, for simple one-to-one binding. Lower therefore signals a tighter complex.
